One may read the Tmax as the time at which the peak concentration occurs.

One compound from ChEMBL document CHEMBL3785063 (Eur J Clin Pharmacol, 1981) can be followed below.

Data set [1] in a line: Tmax in arrhythmia patient (7 patients) at 400 mg, iv after 4 days 400 mg, po dose administered followed continuous oral therapy with 200 mg, tid by HPLC analysis. The conditions noted are these: human, in vivo.
Data set [2] is described as follows: Drug excretion in arrhythmia patient (7 patients) assessed as unchanged compound level in urine at 400 mg, iv after 4 days 400 mg, po dose administered followed continuous oral therapy with 200 mg, tid measured 2 hrs after iv drug challenge by HPLC analysis. The note with it: human.
The nature of data set [3]: Drug uptake in arrhythmia patient (7 patients) serum at 400 mg, iv after 4 days 400 mg, po dose administered followed continuous oral therapy with 200 mg, tid measured 2 hrs after iv drug challenge by HPLC analysis. The note with it: human.
The nature of data set [4]: Drug concentration in arrhythmia patient (7 patients) serum at 400 mg, iv after 4 days 400 mg, po dose administered followed continuous oral therapy with 200 mg, tid measured after 24 hrs by HPLC analysis. The note with it: human.
Data set [5] is described as follows: Drug concentration in arrhythmia patient (7 patients) serum at 400 mg, iv after 4 days 400 mg, po dose administered followed continuous oral therapy with 200 mg, tid measured after 48 hrs by HPLC analysis. The conditions noted are these: human.
Data set [6] can be described thus: Drug concentration in arrhythmia patient (7 patients) serum at 400 mg, iv after 4 days 400 mg, po dose administered followed continuous oral therapy with 200 mg, tid measured after 1 week by HPLC analysis. The conditions noted are these: human.
Data set [7] can be described thus: Drug concentration in arrhythmia patient (7 patients) serum at 400 mg, iv after 4 days 400 mg, po dose administered followed continuous oral therapy with 200 mg, tid measured after 1 month by HPLC analysis. The conditions noted are these: human.

On to `CCCCc1oc2ccccc2c1C(=O)c1cc(I)c(OCCN(CC)CC)c(I)c1` [AMIODARONE], for which the Tmax at 96 h in data set [1] came to 7.3 h. The concentration at 2 h in data set [2] turned out to be 100 ng/mL; in data set [3] it was 2000 ng/mL. In data set [4], this compound returned a concentration at 24 h of 610 ng/mL. Besides, in data set [5], the concentration at 48 h is 760 ng/mL. The concentration at 1 week in data set [6] worked out at 1180 ng/mL. The compound further displayed a concentration at 96 h in data set [7] of 1560 ng/mL.
